Ten compounds from patent US20260022089A1, “QUINONE-DERIVED COMPOUNDS AND USE THEREOF AGAINST LEISHMANIA SPP” (Universidad de la Laguna, priority 2022, published 2026) can be followed below.

Converted amounts (≈) assume the structure as drawn. Read-outs that look alike come from different tables or passages of the source.

A short description of data set [1]: Toxicity against mouse cells, alamarBlue assay, 24 hours. The format is cell-based. As to conditions: murine macrophages, read-out: Macrophage Toxicity CC50. The procedure:
To assess toxicity, all compounds were evaluated against mouse cells for 24 hours by means of the alamarBlue assay. […] The higher the value of CC50, the greater the amount of compound required to damage mouse cells, therefore, the lower the toxicity of the compound.
Background: Resazurin is reduced to fluorescent resorufin, in cell work by metabolically active cells.

The subject of data set [2] is Leishmania amazonensis promastigotes. Nature of the data set: Leishmanicidal activity, alamarBlue fluorescence, 72 hours incubation with promastigotes. It is filed as cell-based. As to conditions: for SI (CC50/IC50): ratio of macrophage CC50 to L. amazonensis IC50.
The mark [3] stands for this setting: Leishmania amazonensis, promastigotes, 72 hours, alamarBlue, read-out: L. amazonensis IC50.

What is called CC50 is the concentration at which the toxic effect on the cells reaches its halfway point. One may read the IC50 as the concentration needed to halve the response being measured. Take `CCCCCCCCCCCCCCCCOP(=O)([O-])OCC[N+](C)(C)C` [Miltefosine, miltefosine, reference compound]: in data set [1], the CC50 at 24 h amounted to 29.4 ± 1.25 µg/mL (≈ 72.2 µM). In data set [2], the IC50 was determined as 2.64 µg/mL (≈ 6.48 µM) and the “SI (CC50/IC50)” value worked out at 11.14. Also, in data set [2] (Leishmania amazonensis, read-out: IC50), the IC50 was 2.64 µg/mL (≈ 6.48 µM).

In the case of `CC1=CC(=O)C=C(C2CCCC2)C1=O` [SG-003, 2-cyclopentyl-6-methylcyclohexa-2,5-diene-1,4-dione], in data set [1], the CC50 at 24 h was 4.53 ± 0.9 µg/mL (≈ 23.8 µM). In addition, the IC50 in data set [2] (setting [3]) amounted to 0.34 ± 0.01 µg/mL (≈ 1.79 µM). In addition, the “SI (CC50/IC50)” value in data set [2] is on record as 13.30.

As for `CC1=CC(=O)C(C2CCCC2)=CC1=O` [SG-005, 2-cyclopentyl-5-methylcyclohexa-2,5-diene-1,4-dione], in data set [1], the CC50 at 24 h came out at 0.72 ± 0.01 µg/mL (≈ 3.78 µM). The 50% inhibitory concentration (IC50) in data set [2] (setting [3]) came out at 0.13 ± 0.03 µg/mL (≈ 0.683 µM). For the same compound, the “SI (CC50/IC50)” value in data set [2] turned out to be 5.50.

For the compound `CC1=CC(=O)C=C(C2CCCCC2)C1=O` [SG-007, 2-cyclohexyl-6-methylcyclohexa-2,5-diene-1,4-dione], the CC50 at 24 h in data set [1] came to 0.52 ± 0.09 µg/mL (≈ 2.55 µM). The IC50 in data set [2] (setting [3]) was 0.07 ± 0.02 µg/mL (≈ 0.343 µM). In addition, the “SI (CC50/IC50)” value in data set [2] was determined as 7.40.

For `CC1=CC(=O)C(C2CCCCC2)=CC1=O` [SG-008, 2-cyclohexyl-5-methylcyclohexa-2,5-diene-1,4-dione], the CC50 at 24 h in data set [1] was found to be 2.55 ± 0.2 µg/mL (≈ 12.5 µM). The IC50 in data set [2] (setting [3]) was 0.06 ± 0.01 µg/mL (≈ 0.294 µM). For the same compound, in data set [2], the “SI (CC50/IC50)” value turned out to be 42.50.

In the case of `CCC(C)(C)C1=CC(=O)C(C)=CC1=O` [SG-010, 2-methyl-5-(tert-pentyl)cyclohexa-2,5-diene-1,4-dione], in data set [1], the CC50 at 24 h stood at 4.51 ± 0.47 µg/mL (≈ 23.5 µM). Further, in data set [2] (setting [3]), the IC50 turned out to be 0.12 ± 0.02 µg/mL (≈ 0.624 µM). The “SI (CC50/IC50)” value in data set [2] is on record as 37.50. Moreover, the leishmanicidal activity result in data set [2] (statement in words) is given as “shows leishmanicidal activity”.

Take `CCC(C)(CC)C1=CC(=O)C(C)=CC1=O` [SG-011, 2-methyl-5-(3-methylpentan-3-yl)cyclohexa-2,5-diene-1,4-dione]: the CC50 at 24 h in data set [1] stood at 12.3 ± 0.77 µg/mL (≈ 59.5 µM). In addition, in data set [2] (setting [3]), the IC50 is 0.89 ± 0.06 µg/mL (≈ 4.31 µM). Further, the “SI (CC50/IC50)” value in data set [2] is reported as 13.80.

Take `CC1=CC(=O)C(C23CC4CC(CC(C4)C2)C3)=CC1=O` [SG-012, 2-((3r,5r,7r)-adamantane-1-yl)-5-methylcyclohexa-2,5-diene-1,4-dione]: in data set [1], the CC50 at 24 h worked out at 0.78 ± 0.02 µg/mL (≈ 3.04 µM). In addition, the IC50 in data set [2] (setting [3]) worked out at 0.08 ± 0.01 µg/mL (≈ 0.312 µM). Further, the “SI (CC50/IC50)” value in data set [2] came to 9.75.

Turning to `CC1=CC(=O)C(C2CCCCCC2)=CC1=O` [SG-013, 2-cycloheptyl-5-methylcyclohexa-2,5-diene-1,4-dione], in data set [1], the half-maximal cytotoxic concentration (CC50) at 24 h came to 0.92 ± 0.05 µg/mL (≈ 4.21 µM). Also, in data set [2] (setting [3]), the IC50 worked out at 0.09 µg/mL (≈ 0.412 µM). The “SI (CC50/IC50)” value in data set [2] is listed as 7.10.

Take `CC1=CC(=O)C=C(C2CCCCCC2)C1=O` [SG-014, 2-cycloheptyl-6-methylcyclohexa-2,5-diene-1,4-dione]: the CC50 at 24 h in data set [1] was determined as 8.95 ± 1.75 µg/mL (≈ 41 µM). Further, the IC50 in data set [2] (setting [3]) was 0.7 ± 0.02 µg/mL (≈ 3.21 µM). In data set [2], the “SI (CC50/IC50)” value is 24.20.
